Data taken from PubChem BioAssay AID292 (DTP/NCI, 2004).
“And” between values parts separate entries of the source, which are not always exact repeats. Identical values can stand only once. Inconclusive results and toxic doses are left out.

Test system: B6C3F1 mice, ip Sarcoma M5076, median survival T/C
Experiment: NCI In Vivo Anticancer Drug Screen. Data for tumor model Sarcoma M5076 (intraperitoneal) in B6C3F1 mice
Conditions: endpoint: median survival time, schedule: Q04DX004 (ip), higher = longer survival
Outline: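 Mice carrying the transplanted tumour received compound treatment. Survival was recorded, and each value is the treated-group measurement divided by that of the vehicle-dosed control group.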

[1] = dose: 150.0 mg/kg/injection, vehicle: saline with Tween-80
[2] = dose: 300.0 mg/kg/injection, vehicle: saline with Tween-80
[3] = dose: 600.0 mg/kg/injection, vehicle: saline with Tween-80
[4] = dose: 50.0 mg/kg/injection, vehicle: saline with Tween-80
[5] = dose: 100.0 mg/kg/injection, vehicle: saline with Tween-80
[6] = dose: 200.0 mg/kg/injection, vehicle: saline with Tween-80
[7] = dose: 400.0 mg/kg/injection, vehicle: saline with Tween-80
[8] = dose: 50.0 mg/kg/injection, vehicle: Klucel (hydroxypropylcellulose) (HPC)
[9] = dose: 100.0 mg/kg/injection, vehicle: Klucel (hydroxypropylcellulose) (HPC)
[10] = dose: 400.0 mg/kg/injection, vehicle: Klucel (hydroxypropylcellulose) (HPC)
[11] = dose: 12.5 mg/kg/injection, vehicle: Klucel (hydroxypropylcellulose) (HPC)
[12] = dose: 25.0 mg/kg/injection, vehicle: Klucel (hydroxypropylcellulose) (HPC)
[13] = dose: 200.0 mg/kg/injection, vehicle: Klucel (hydroxypropylcellulose) (HPC)
[14] = dose: 25.0 mg/kg/injection, vehicle: water
[15] = dose: 50.0 mg/kg/injection, vehicle: water
[16] = dose: 25.0 mg/kg/injection, vehicle: saline with Tween-80

`CC[n+]1c([S-])nn(C)c1-c1cnccn1` was tested, and the T/C (dose: 37.5 mg/kg/injection, vehicle: saline with Tween-80) was 103 % of control, the T/C (dose: 75.0 mg/kg/injection, vehicle: saline with Tween-80) was 107 % of control and the T/C [1] was 96 % of control. For the same compound, the T/C [2] was 112 % of control and the T/C [3] was 95 % of control.
For `Nc1ccccc1Sc1cc(Cl)nnc1Cl`, the T/C [4] was 97 % of control, the T/C [5] was 98 % of control and the T/C [6] was 102 % of control. The T/C [7] was 88 % of control.
In the case of `COc1nc(C(Cl)(Cl)Cl)c(Cl)c(OC)c1Cl`, the T/C [8] is reported as 99 % of control, the T/C [9] is reported as 114 % of control and the T/C (dose: 179.0 mg/kg/injection, vehicle: Klucel (hydroxypropylcellulose) (HPC)) is reported as 152 % of control. For the same compound, the T/C (dose: 179.6 mg/kg/injection, vehicle: Klucel (hydroxypropylcellulose) (HPC)) was 121 % of control and the T/C [10] was 168 % of control.
With `COc1ccc(N2CCCSC2=S)cc1` the T/C (dose: 31.25 mg/kg/injection, vehicle: saline + Tween-80 + alcohol) was 97 % of control and the T/C (dose: 62.5 mg/kg/injection, vehicle: saline + Tween-80 + alcohol) was 91 % of control.
For `CC(=O)NCCSSCCCCS(=O)O`, the T/C (dose: 37.5 mg/kg/injection, vehicle: saline) was 99 % of control, the T/C (dose: 75.0 mg/kg/injection, vehicle: saline) was 98 % of control and the T/C (dose: 150.0 mg/kg/injection, vehicle: saline) was 100 % of control. For the same compound, the T/C (dose: 300.0 mg/kg/injection, vehicle: saline) was 97 % of control and the T/C (dose: 600.0 mg/kg/injection, vehicle: saline) was 104 % of control.
In the case of `COC1CC2C=C(C)/C=C/C=C/C(=O)NC(c3ccccc3)C/C=C/CCC(O)CC(=O)C2=C1O` (stereo unspecified), the T/C (dose: 3.12 mg/kg/injection, vehicle: Klucel (hydroxypropylcellulose) (HPC)) is reported as 112 % of control, the T/C (dose: 6.25 mg/kg/injection, vehicle: Klucel (hydroxypropylcellulose) (HPC)) is reported as 118 % of control and the T/C [11] is reported as 110 % of control. For the same compound, the T/C [12] was 123 % of control.
With `O=c1nc2[nH]c3c4cccc5cccc(c3nc2c(=O)[nH]1)c54` the T/C [11] was 103 % of control, the T/C [12] was 99 % of control and the T/C [8] was 98 % of control. The T/C [9] was 94 % of control and the T/C [13] was 103 % of control.
In the case of `CC(=O)Oc1ccccc1O`, the T/C (dose: 6.25 mg/kg/injection, vehicle: saline + Tween-80 + alcohol) is reported as 112 % of control, the T/C (dose: 12.5 mg/kg/injection, vehicle: saline + Tween-80 + alcohol) is reported as 107 % of control and the T/C (dose: 25.0 mg/kg/injection, vehicle: saline + Tween-80 + alcohol) is reported as 95 % of control. The T/C (dose: 50.0 mg/kg/injection, vehicle: saline + Tween-80 + alcohol) was 98 % of control.
In the case of `CCCCNc1ccc2nnc(C)n2n1`, the T/C (dose: 25.0 mg/kg/injection, vehicle: DMSO) is reported as 99 % of control, the T/C (dose: 50.0 mg/kg/injection, vehicle: DMSO) is reported as 92 % of control and 100 % of control and the T/C (dose: 100.0 mg/kg/injection, vehicle: DMSO) is reported as 94 % of control and 96 % of control. The T/C (dose: 200.0 mg/kg/injection, vehicle: DMSO) was 92 % of control and 101 % of control.
`COc1ccc(OC)c(Cc2cnc3nc(N)nc(N)c3c2C)c1` was tested, and the T/C [14] was 95 % of control and the T/C [15] was 115 % of control.
`Cc1nc(N)nc(N)c1N1CCN(c2ccc(C(=O)NC(C(=O)O)C(=O)O)cc2)CC1` was tested, and the T/C (dose: 3.75 mg/kg/injection, vehicle: Klucel + Tween-80) was 104 % of control, the T/C (dose: 7.5 mg/kg/injection, vehicle: Klucel + Tween-80) was 106 % of control and the T/C (dose: 15.0 mg/kg/injection, vehicle: Klucel + Tween-80) was 103 % of control. For the same compound, the T/C (dose: 30.0 mg/kg/injection, vehicle: Klucel + Tween-80) was 113 % of control and the T/C (dose: 60.0 mg/kg/injection, vehicle: Klucel + Tween-80) was 121 % of control.
In the case of `O=C1N(CCN2CCC3(CC2)OCCO3)CCN1c1cc(Cl)cc(Cl)c1`, the T/C [14] is reported as 104 % of control and the T/C [15] is reported as 102 % of control.
For `O=C1NC(=O)N(c2ccc(Cl)c(Cl)c2)C1=O`, the T/C [8] was 93 % of control, the T/C [9] was 95 % of control and the T/C [13] was 92 % of control. For the same compound, the T/C [10] was 89 % of control.
`CC1C(c2ccccc2)OC(N2CCOCC2)C(C)(C)CN1C` (stereo unspecified) was tested, and the T/C [1] was 101 % of control, the T/C [2] was 104 % of control and the T/C [3] was 99 % of control.
With `Cn1c(-c2ccc(Br)cc2)cc2[nH]c(=S)nc(N)c2c1=O` the T/C [4] was 96 % of control, the T/C [5] was 92 % of control and the T/C [6] was 87 % of control.
In the case of `CCNC(=O)[B-][N+](C)(C)C`, the T/C [4] is reported as 96 % of control, the T/C [5] is reported as 104 % of control and the T/C [6] is reported as 102 % of control. The T/C [7] was 92 % of control.
`O=C(NNC(=O)c1cccc(C(=O)NNC(=O)c2ccc(Cl)c(Cl)c2)n1)c1ccc(Cl)c(Cl)c1` was tested, and the T/C [12] was 102 % of control and the T/C [8] was 96 % of control.
`Cc1ccc2c(c1)n([O-])c1cc(Cl)ccc1[n+]2=O` was tested, and the T/C [16] was 104 % of control, the T/C [4] was 113 % of control and the T/C [5] was 109 % of control. For the same compound, the T/C (dose: 144.0 mg/kg/injection, vehicle: saline with Tween-80) was 120 % of control.
For `CC(=O)NCCSSCc1ccccc1CS(=O)O`, the T/C (dose: 25.0 mg/kg/injection, vehicle: suspension in saline) was 96 % of control, the T/C (dose: 50.0 mg/kg/injection, vehicle: suspension in saline) was 100 % of control and the T/C (dose: 100.0 mg/kg/injection, vehicle: suspension in saline) was 100 % of control. The T/C (dose: 200.0 mg/kg/injection, vehicle: suspension in saline) was 101 % of control and the T/C (dose: 400.0 mg/kg/injection, vehicle: suspension in saline) was 99 % of control.
With `CCC(CC)C(=O)NCC(=O)NO` the T/C [16] was 93 % of control, the T/C [4] was 93 % of control and the T/C [5] was 93 % of control. The T/C [6] was 97 % of control and the T/C [7] was 92 % of control.
With `CCN(CC)CC(=O)O[C@]1(CC)C(=O)OCc2c1cc1n(c2=O)Cc2cc3ccccc3nc2-1` the T/C (dose: 2.0 mg/kg/injection, vehicle: water) was 106 % of control and 110 % of control, the T/C (dose: 4.0 mg/kg/injection, vehicle: water) was 107 % of control and 108 % of control and the T/C (dose: 8.0 mg/kg/injection, vehicle: water) was 120 % of control and 124 % of control.
With `CCN(CC)Cc1c(OC)ccc2[nH]c3c4ccc(Cl)cc4ncc3c12` the T/C (dose: 15.63 mg/kg/injection, vehicle: saline with Tween-80) was 104 % of control, the T/C (dose: 31.25 mg/kg/injection, vehicle: saline with Tween-80) was 106 % of control and the T/C (dose: 62.5 mg/kg/injection, vehicle: saline with Tween-80) was 105 % of control. The T/C (dose: 125.0 mg/kg/injection, vehicle: saline with Tween-80) was 101 % of control and the T/C (dose: 250.0 mg/kg/injection, vehicle: saline with Tween-80) was 100 % of control.
With `COc1ccc2c(c1)n([O-])c1ccccc1[n+]2=O` the T/C [16] was 115 % of control, the T/C [4] was 117 % of control and the T/C [5] was 121 % of control.
For `c1ccc(-c2nc3cc4c(cc3n3cccc23)oc2ccccc24)cc1`, the T/C [16] was 90 % of control, the T/C [4] was 101 % of control and the T/C [7] was 91 % of control.
For `NC(=O)c1c[se]c(C2OC(CO)C(O)C2O)n1` (stereo unspecified), the T/C [14] was 96 % of control, the T/C [15] was 100 % of control and the T/C (dose: 100.0 mg/kg/injection, vehicle: water) was 102 % of control. For the same compound, the T/C (dose: 200.0 mg/kg/injection, vehicle: water) was 106 % of control and the T/C (dose: 400.0 mg/kg/injection, vehicle: water) was 113 % of control.
